Source: article PMC8199339, “Propellanes as Rigid Scaffolds for the Stereodefined Attachment of σ-Pharmacophoric Structural Elements to Achieve σ Affinity” (International Journal of Molecular Sciences, 2021)
Read-outs that look alike come from different tables or passages of the source.

Experiments:
σ1 receptor [1] = conditions: cited from earlier work; for Ki: Figure 2
σ2 receptor [2] = conditions: cited from earlier work; for Ki: Figure 2
σ1 receptor [3] = target: T1, σ1 receptor (Cavia porcellus, UniProt Q60492); conditions: cited from earlier work
T1 construct: thawed membrane preparation of guinea pig brain; tissue Harlan-Winkelmann, Borchen, Germany (animal organs); host or cells: guinea pig brain membrane homogenate
T1 sequence (Q60492 whole entry): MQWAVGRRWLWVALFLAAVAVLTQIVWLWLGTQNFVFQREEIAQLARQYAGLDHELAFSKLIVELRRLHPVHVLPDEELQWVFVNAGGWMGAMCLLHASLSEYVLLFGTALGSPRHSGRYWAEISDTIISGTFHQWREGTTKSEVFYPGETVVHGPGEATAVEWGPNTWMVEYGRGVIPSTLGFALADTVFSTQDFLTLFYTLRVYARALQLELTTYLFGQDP

σ2 receptor [4] = target: T2, σ2 receptor (Rattus norvegicus, UniProt Q5U3Y7); conditions: cited from earlier work; for inhibition of the radioligand binding, σ2: test compound concentration of 1 µM, already reported, 1 µM
T2 construct: The thawed rat liver membrane preparation; tissue Harlan-Winkelmann, Borchen, Germany (animal organs); host or cells: rat liver membrane homogenate
T2 sequence (Q5U3Y7 1-176): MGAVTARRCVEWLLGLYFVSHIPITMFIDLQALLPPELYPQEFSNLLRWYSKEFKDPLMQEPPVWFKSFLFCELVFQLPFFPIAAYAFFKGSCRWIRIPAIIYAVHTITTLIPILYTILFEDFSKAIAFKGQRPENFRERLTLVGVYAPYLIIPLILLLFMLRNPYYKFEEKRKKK

σ1 receptor [5] = target: T1, σ1 receptor; assay: σ1 receptor binding assay, radioligand [3H]-(+)-pentazocine, guinea pig brain membrane preparation; conditions: for inhibition at 1 µM / inhibition of the radioligand binding, σ1: test compound concentration of 1 µM
σ2 receptor [6] = target: T2, σ2 receptor; assay: σ2 receptor binding assay, radioligand [3H]di-o-tolylguanidine, rat liver membrane preparation; conditions: for inhibition at 1 µM / inhibition of the radioligand binding, σ2: test compound concentration of 1 µM
[7] = azapropellanes 9, already reported
[8] = [3H]-(+)-pentazocine, guinea pig brain, mean of three experiments (± SEM), values without SEM mean of two, read-out: Ki (nM) σ1
[9] = approximate statement in text, read-out: σ1 affinity, Ki (in the range of)

SMILES	inhibition at 1 µM (σ1 receptor [5]) [%]	inhibition at 1 µM (σ2 receptor [6]) [%]	melting point [°C]	also measured
COc1ccc(C)cc1NC(=O)OC1CC2CCCC(C1)N2Cc1ccccc1 (stereo not shown) [compound 3]				Ki (σ1 receptor [1]): 0.0925 µM; Ki (σ2 receptor [2]): 0.0031 µM; preference for the σ2 receptor (σ2 receptor [2]; σ2 over σ1): 30 fold
COc1ccc(C)cc1NC(=O)OC1CC23CCCCC2(C1)CN(Cc1ccccc1)CC3 (stereo not drawn) [syn-5]				inhibition of the radioligand binding, σ1 (σ1 receptor [3]; test compound concentration of 1 µM, already reported): 12%; inhibition of the radioligand binding, σ2 (σ2 receptor [4]): 0%
COc1ccc(CN2CC3CCCC2CN3Cc2ccccc2)cc1 (stereo not shown) [compound 2]				Ki (σ1 receptor [1]): 0.00091 µM; selectivity for σ1 against/over the σ2 subtype (σ1 receptor [1]): more than 40 fold; Ki (σ2 receptor [2]): 0.039 µM
COc1ccc(C)cc1NC(=O)OC1CC23CCCCC2(CC(NCCCN)C3)C1 (stereo not drawn) [8-anti-4r, [(8-anti-11-anti and 8-anti-11-syn)-11-[(3-Aminopropyl)amino][4.3.3]propellan-8-yl] N-(2-methoxy-5-methylphenyl)carbamate]	16	0	74 to 76	
COc1ccc(C)cc1NC(=O)N(Cc1ccccc1)C1CC23CCCCC2(CC(=O)C3)C1 (stereo not drawn) [syn-21, 1 -Benzyl-3-(2-methoxy-5-methylphenyl)-1-(syn-11-oxo-[4.3.3]propellan-8-yl)urea]		14	168 to 170	inhibition of the radioligand binding, σ1 (σ1 receptor [5]; 1 µM): 13%
c1ccc(CN2CC34CCCCC3(CCC4)C2)cc1 (stereo not shown) [9a]				selectivity for the σ1 receptor over the σ2 receptor (σ1 receptor [5]; σ1 over σ2): at least 10 fold; Ki (σ1 receptor [3]; [7]): 17 ± 12 nM; Ki (σ2 receptor [4]; [7]): 190 nM
COc1ccc(C)cc1NC(=O)N(Cc1ccccc1)C1CC23CCCCC2(CC(=O)C3)C1 (stereo not drawn) [anti-21, 1 -Benzyl-3-(2-methoxy-5-methylphenyl)-1-(anti-11-oxo-[4.3.3]propellan-8-yl)urea]			133 to 136	inhibition of the radioligand binding, σ1 (σ1 receptor [5]; 1 µM): 5%; inhibition of the radioligand binding, σ2 (σ2 receptor [6]; 1 µM): 12%
OC1CC23CCCCC2(C1)CC(NCc1ccccc1)C3 (mixture of isomers) [11-anti-13, [(8-anti-11-anti and 8-anti-11-syn)-11-(Benzylamino)[4.3.3]propellan-8-ol]	29		121 to 123	Ki (σ2 receptor [6]; read-out: Ki (nM) σ2): 1070 nM
COc1ccc(C)cc1NC(=O)OC1CC23CCCCC2(C1)CN(Cc1ccccc1)CC3 (stereo not drawn) [anti-5]				Ki (σ1 receptor [3]; propellanamines 4a and azapropellanes 5, already reported): 82 ± 54 nM; inhibition of the radioligand binding, σ2 (σ2 receptor [4]): 8%
O=C(Nc1ccc(F)c(F)c1)NC1CC23CCCCC2(CC(O)C3)C1 (mixture of isomers) [8-syn-26, 1-(3,4-Difluorophenyl)-3-(8-syn-11-syn- and 8-syn-11-anti-11-hydroxy[4.3.3]-propellan-8-yl)urea]	10	0	171 to 178	
C1CCC(CNC2CC34CCCCC3(CCC4)C2)CC1 (stereo not drawn) [compound 18, syn- and anti-N-Cyclohexylmethyl[4.3.3]propellan-8-amine]			108 to 111	Ki (σ1 receptor [5]; Ki (nM) σ1): 34 ± 11 nM; Ki (σ2 receptor [6]; read-out: Ki (nM) σ2): 101 nM
CN(C)c1ccc(CNC2CC34CCCCC3(CCC4)C2)cc1 (stereo not drawn) [compound 17, syn- and anti-N-(4-(Dimethylaminobenzyl)-[4.3.3]propellan-8-amine]		1	89 to 91	Ki (σ1 receptor [5]; [8]): 1200 nM
O=C(Nc1ccc(F)c(F)c1)NC1CC23CCCCC2(CCC3)C1 (stereo not drawn) [23d, 1-(3,4-Difluorophenyl)-3-(syn- and anti-[4.3.3]propellan-8-yl)urea]	0	0	168 to 175	
COc1ccc(C)cc1NC(=O)OC1CC23CCCCC2(CC(NCCc2c[nH]c4ccccc24)C3)C1 (stereo not drawn) [8-anti-4k, [(8-anti-11-anti and 8-anti-11-syn)-11-[2-(Indol-3-yl)ethylamino][4.3.3]propellan-8-yl] N-(2-methoxy-5-methylphenyl)carbamate]		0		Ki (σ1 receptor [5]; [8]): 1200 nM; Ki (σ1 receptor [5]; [9]): ~1000 nM
COc1ccc(C)cc1NC(=O)NC1CC23CCCCC2(CCC3)C1 (stereo not drawn) [23c, 1-(2-Methoxy-5-methylphenyl)-3-(syn- and anti-[4.3.3]propellan-8-yl)urea]	0	0	215 to 220	
FCC[C@@H]1OC2(CCN(Cc3ccccc3)CC2)c2ccccc21 [compound 1, (S)-fluspidine]				Ki (σ1 receptor [1]): 0.0023 µM; selectivity for σ1 against/over the σ2 subtype (σ1 receptor [1]): 300 fold; Ki (σ2 receptor [2]): 0.897 µM
COc1ccc(C)cc1NC(=O)OC1CC23CCCCC2(CC(Nc2ccccc2)C3)C1 (stereo not drawn) [8-anti-4l, [(8-anti-11-anti and 8-anti-11-syn)-11-(Phenylamino)[4.3.3]propellan-8-yl] N-(2-methoxy-5-methylphenyl)carbamate]	13	0		
O=C1CC23CCCCC2(C1)CC(NC(=O)Nc1ccc(F)c(F)c1)C3 (stereo not drawn) [anti-25, 1-(3,4-Difluorophenyl)-3-(8-anti-11-oxo[4.3.3]propellan-8-yl)urea]				inhibition of the radioligand binding, σ1 (σ1 receptor [5]; 1 µM): 0%; inhibition of the radioligand binding, σ2 (σ2 receptor [6]): 0%
O=C(Nc1ccccc1)NC1CC23CCCCC2(CCC3)C1 (stereo not drawn) [23a, 1 -Phenyl-3-(syn- and anti-[4.3.3]propellan-8-yl)urea]	0	15	134 to 138	
c1ccc2c(CCNC3CC45CCCCC4(CCC5)C3)c[nH]c2c1 (stereo not drawn) [compound 15, syn- and anti-N-[2-(Indol-3-yl)ethyl]-[4.3.3]propellan-8-amine]			109 to 111	Ki (σ1 receptor [5]; Ki (nM) σ1): 598 nM; Ki (σ2 receptor [6]): 974 nM
COc1ccc(C)cc1NC(=O)OC1CC23CCCCC2(CC(NCc2ccco2)C3)C1 (mixture of isomers) [8-anti-4i, [(8-anti-11-anti and 8-anti-11-syn)-11-[(Furan-2-yl-mehtyl)amino][4.3.3]propellan-8-yl] N-(2-methoxy-5-methylphenyl)carbamate]				Ki (σ1 receptor [5]; [8]): 924 nM; Ki (σ1 receptor [5]; [9]): ~1000 nM; Ki (σ2 receptor [6]; read-out: Ki (nM) σ2): > 6000 nM
O=C(NC1CCCCC1)NC1CC23CCCCC2(CCC3)C1 (stereo not drawn) [23b, 1 -Cyclohexyl-3-(syn- and anti-[4.3.3]propellan-8-yl)urea]	0	0	187 to 193	
COc1ccc(NC2CC34CCCCC3(C2)CC(OC(=O)Nc2cc(C)ccc2OC)C4)cc1 (stereo not drawn) [8-anti-4m, [(8-anti-11-anti and 8-anti-11-syn)-11-(4-Methoxyphenylamino)[4.3.3]propellan-8-yl] N-(2-methoxy-5-methylphenyl)carbamate]	11	0		
COc1ccc(C)cc1NC(=O)N(Cc1ccccc1)C1CC23CCCCC2(CC(O)C3)C1 (stereo not drawn) [anti,anti-22, 1 -Benzyl-1-{(8-anti,11-anti)-11-hydroxy[4.3.3]propellan-8-yl}-3-(2-methoxy-5-methylphenyl)urea]				inhibition of the radioligand binding, σ1 (σ1 receptor [5]): 0%; inhibition of the radioligand binding, σ2 (σ2 receptor [6]; 1 µM): 0%
COc1ccc(NC2CC34CCCCC3(C2)CC(OC(=O)Nc2cc(C)ccc2OC)C4)cc1Cl (stereo not drawn) [8-anti-4n, [(8-anti-11-anti and 8-anti-11-syn)-11-(3-Chloro-4-methoxyphenylamino)-[4.3.3]propellan-8-yl] N-(2-methoxy-5-methylphenyl)carbamate]	0	0		
COc1ccc(C)cc1NC(=O)OC1CC23CCCCC2(CC(NCCCCCO)C3)C1 (stereo not drawn) [8-anti-4t, [(8-anti-11-anti and 8-anti-11-syn)-11-(5-Hydroxypentylamino)[4.3.3]propellan-8-yl] N-(2-methoxy-5-methylphenyl)carbamate]		2		Ki (σ1 receptor [5]; [8]): 454 nM
